Source: PMC12736120, “First-in-Human Phase I Clinical Trial of SLC-391, a Novel and Selective AXL Inhibitor, in Patients with Advanced Solid Tumours” (Pharmaceuticals, 2025)

Test: Phase I safety and tolerability (DLTs, adverse events, laboratory, ECG)
Assay type: in vivo
Details: for dose-limiting toxicity (DLT): one subject; for Any treatment-related adverse event (TRAE) / TRAE: Decreased appetite / TRAE: Diarrhoea / TRAE: Dysgeusia / TRAE: Fatigue / TRAE: Gastrointestinal disorders / TRAE: General disorders and administration site conditions / TRAE: Metabolism and nutrition disorders / TRAE: Nausea / TRAE: Nervous system disorders / TRAE: Vomiting: Definitely related; for Any treatment-emergent adverse event (TEAE) / TEAE: Abdominal distension / TEAE: Abdominal pain / TEAE: Back pain / TEAE: Blood and lymphatic system disorders / TEAE: Chills / TEAE: Constipation / TEAE: Cough / TEAE: Decreased appetite / TEAE: Diarrhoea / TEAE: Dizziness / TEAE: Dysgeusia / TEAE: Dyspnoea / TEAE: Fatigue / TEAE: Gastrointestinal disorders / TEAE: General disorders and administration site conditions / TEAE: Haematuria / TEAE: Headache / TEAE: Infections and infestations / TEAE: Investigations / TEAE: Metabolism and nutrition disorders / TEAE: Musculoskeletal and connective tissue disorders / TEAE: Nausea / TEAE: Nervous system disorders / TEAE: Oedema peripheral / TEAE: Psychiatric disorders / TEAE: Pyrexia / TEAE: Renal and urinary disorders / TEAE: Respiratory, thoracic, and mediastinal disorders / TEAE: Skin and subcutaneous tissue disorders / TEAE: Vomiting / TEAE: Weight decreased: Grade 1
Experimental: This study employed a standard 3 + 3 dose escalation design with a starting dose of 25 mg QD. […] Dose escalation decisions took into account all available data from evaluable subjects as well as PK and the safety profile of prior dose cohorts. […] There was a minimum 5-day stagger between dosing of the first and second subjects in each dose cohort. Dose escalation decisions were made by a data review committee (DRC) composed of, at minimum, the medical monitor, at least one principal investigator, and a sponsor representative, per the study DRC Plan. Dose escalation could continue until 2 or more subjects in the same dose cohort experienced a dose-limiting toxicity (DLT). DLTs were defined as Grade 3 or 4 adverse drug reactions (ADRs), with grades as defined in the National Cancer Institute Common Toxicity Criteria for Adverse Events (NCI-CTCAE) version 5.0. […] The MTD was defined as the highest dose at which no more than 1 of 6 subjects experienced a DLT during cycle 1 of the study drug. The MTD would have been exceeded if 2 or more subjects in a dose cohort of up to 6 subjects experienced a DLT. Subjects could continue treatment until disease progression, unacceptable toxicity, death, withdrawal of consent, or loss to follow-up.
Before enrolment in the study, all patients received a detailed medical history and physical examination. Clinical laboratory evaluations included clinical chemistry, complete blood count, urinalysis, coagulation factors, and a lipid panel. Other safety assessments included vital signs, physical examination, electrocardiogram, and echocardiogram with multigated acquisition (ECHO/MUGA). Safety assessments were performed on days 1, 8, 15, and 21 of cycle 1, and on day 1 of cycles 2 to 6.

## Nc1ncc(-c2cnn(C3CCNCC3)c2)cc1-c1nnc(CC2CC2)o1 [SLC-391, 3-(5-[cyclopropylmethyl]-1,3,4-oxadiazol-2-yl)-5-(1-[piperidin-4-yl]-1H-pyrazol-4-yl)-pyridin-2-amine]
110 mg BID (1/3)
  subjects with SAEs: 33.3%
150 mg BID
  TEAEs leading to drug withdrawal or study discontinuation: 16.7%
  subjects reporting Grade 3 TEAEs: 50.0%
150 mg BID (N = 6)
  DLTs and SAEs: no DLTs or SAEs
  subjects reporting constipation: 66.7%
  subjects reporting diarrhoea: 66.7%
  subjects reporting dyspnoea: 50.0%
  subjects reporting fatigue: 83.3%
  subjects reporting nausea: 83.3%
150 mg QD (3/6)
  subjects with SAEs: 50%
175 mg QD (1/2)
  subjects with SAEs: 50%
175 mg QD (N = 2), SUSAR
  dose-limiting toxicity (DLT): Grade 3 haematochezia
200 mg BID
  TEAEs leading to drug withdrawal or study discontinuation: 66.7%
  subjects reporting Grade 3 TEAEs: 66.7%
  dose-limiting toxicity (DLT): Grade 3 thrombocytopenia associated with Grade 1 haematuria
200 mg BID (N = 3)
  subjects reporting constipation: 66.7%
  subjects reporting decreased appetite: 66.7%
  subjects reporting diarrhoea: 66.7%
  subjects reporting dysgeusia: 66.7%
  subjects reporting fatigue: 66.7%
  subjects reporting headache: 66.7%
  subjects reporting nausea: 100.0%
2/9 subjects
  subjects with interrupted dosing who continued at a reduced dose: 22.2%
25-175 mg QD, 75-200 mg BID, 21-day cycles
  maximum tolerated dose (MTD): not reached
BID cohorts
  SAEs, subjects: 6.7%
  TEAEs leading to treatment interruption or missed dose: 40.0%
  TEAEs leading to treatment or study discontinuation, subjects: 20.0%
  subjects with Grade 3 TEAEs: 40.0%
  subjects with TRAEs: 86.7%
  subjects with at least one TEAE: 100.0%
Overall BID (N = 15)
  Any treatment-related adverse event (TRAE): 5 (33.3%) n (%)
  TRAE: Decreased appetite: 2 (13.3%) n (%)
  TRAE: Diarrhoea: 2 (13.3%) n (%)
  TRAE: Dysgeusia: 1 (6.7%) n (%)
  TRAE: Fatigue: 1 (6.7%) n (%)
  TRAE: Gastrointestinal disorders: 5 (33.3%) n (%)
  TRAE: General disorders and administration site conditions: 1 (6.7%) n (%)
  TRAE: Metabolism and nutrition disorders: 2 (13.3%) n (%)
  TRAE: Nausea: 4 (26.7%) n (%)
  TRAE: Nervous system disorders: 1 (6.7%) n (%)
  TRAE: Vomiting: 3 (20.0%) n (%)
  Any treatment-emergent adverse event (TEAE): 2 (13.3) n (%)
  TEAE: Abdominal distension: 2 (13.3) n (%)
  TEAE: Abdominal pain: 0 n (%)
  TEAE: Back pain: 0 n (%)
  TEAE: Blood and lymphatic system disorders: 1 (6.7) n (%)
  TEAE: Chills: 4 (26.7) n (%)
  TEAE: Constipation: 5 (33.3) n (%)
  TEAE: Cough: 2 (13.3) n (%)
  TEAE: Decreased appetite: 1 (6.7) n (%)
  TEAE: Diarrhoea: 6 (40.0) n (%)
  TEAE: Dizziness: 0 n (%)
  TEAE: Dysgeusia: 0 n (%)
  TEAE: Dyspnoea: 0 n (%)
  TEAE: Fatigue: 4 (26.7) n (%)
  TEAE: Gastrointestinal disorders: 7 (46.7) n (%)
  TEAE: General disorders and administration site conditions: 5 (33.3) n (%)
  TEAE: Haematuria: 3 (20.0) n (%)
  TEAE: Headache: 3 (20.0) n (%)
  TEAE: Infections and infestations: 1 (6.7) n (%)
  TEAE: Investigations: 2 (13.3) n (%)
  TEAE: Metabolism and nutrition disorders: 0 n (%)
  TEAE: Musculoskeletal and connective tissue disorders: 2 (13.3) n (%)
  TEAE: Nausea: 7 (46.7) n (%)
  TEAE: Nervous system disorders: 3 (20.0) n (%)
  TEAE: Oedema peripheral: 1 (6.7) n (%)
  TEAE: Psychiatric disorders: 1 (6.7) n (%)
  TEAE: Pyrexia: 2 (13.3) n (%)
  TEAE: Renal and urinary disorders: 3 (20.0) n (%)
  TEAE: Respiratory, thoracic, and mediastinal disorders: 2 (13.3) n (%)
  TEAE: Skin and subcutaneous tissue disorders: 2 (13.3) n (%)
  TEAE: Vomiting: 5 (33.3) n (%)
  TEAE: Weight decreased: 2 (13.3) n (%)
Overall QD (N = 20)
  Any treatment-related adverse event (TRAE): 7 (35.0%) n (%)
  TRAE: Decreased appetite: 2 (10.0%) n (%)
  TRAE: Diarrhoea: 5 (25.0%) n (%)
  TRAE: Dysgeusia: 1 (5.0%) n (%)
  TRAE: Fatigue: 3 (15.0%) n (%)
  TRAE: Gastrointestinal disorders: 6 (30.0%) n (%)
  TRAE: General disorders and administration site conditions: 3 (15.0%) n (%)
  TRAE: Metabolism and nutrition disorders: 2 (10.0%) n (%)
  TRAE: Nausea: 4 (20.0%) n (%)
  TRAE: Nervous system disorders: 1 (5.0%) n (%)
  TRAE: Vomiting: 5 (25.0%) n (%)
  Any treatment-emergent adverse event (TEAE): 1 (5.0) n (%)
  TEAE: Abdominal distension: 2 (10.0) n (%)
  TEAE: Abdominal pain: 4 (20.0) n (%)
  TEAE: Back pain: 1 (5.0) n (%)
  TEAE: Blood and lymphatic system disorders: 0 n (%)
  TEAE: Chills: 2 (10.0) n (%)
  TEAE: Constipation: 5 (25.0) n (%)
  TEAE: Cough: 4 (20.0) n (%)
  TEAE: Decreased appetite: 6 (30.0) n (%)
  TEAE: Diarrhoea: 8 (40.0) n (%)
  TEAE: Dizziness: 4 (20.0) n (%)
  TEAE: Dysgeusia: 1 (5.0) n (%)
  TEAE: Dyspnoea: 2 (10.0) n (%)
  TEAE: Fatigue: 6 (30.0) n (%)
  TEAE: Gastrointestinal disorders: 8 (40.0) n (%)
  TEAE: General disorders and administration site conditions: 7 (35.0) n (%)
  TEAE: Haematuria: 1 (5.0) n (%)
  TEAE: Headache: 2 (10.0) n (%)
  TEAE: Infections and infestations: 0 n (%)
  TEAE: Investigations: 5 (25.0) n (%)
  TEAE: Metabolism and nutrition disorders: 5 (25.0) n (%)
  TEAE: Musculoskeletal and connective tissue disorders: 5 (25.0) n (%)
  TEAE: Nausea: 8 (40.0) n (%)
  TEAE: Nervous system disorders: 8 (40.0) n (%)
  TEAE: Oedema peripheral: 2 (10.0) n (%)
  TEAE: Psychiatric disorders: 2 (10.0) n (%)
  TEAE: Pyrexia: 2 (10.0) n (%)
  TEAE: Renal and urinary disorders: 0 n (%)
  TEAE: Respiratory, thoracic, and mediastinal disorders: 3 (15.0) n (%)
  TEAE: Skin and subcutaneous tissue disorders: 4 (20.0) n (%)
  TEAE: Vomiting: 8 (40.0) n (%)
  TEAE: Weight decreased: 4 (20.0) n (%)
Overall Study (N = 35)
  Any treatment-related adverse event (TRAE): 12 (34.3%) n (%)
  TRAE: Decreased appetite: 4 (11.4%) n (%)
  TRAE: Diarrhoea: 7 (20.0%) n (%)
  TRAE: Dysgeusia: 2 (5.7%) n (%)
  TRAE: Fatigue: 4 (11.4%) n (%)
  TRAE: Gastrointestinal disorders: 11 (31.4%) n (%)
  TRAE: General disorders and administration site conditions: 4 (11.4%) n (%)
  TRAE: Metabolism and nutrition disorders: 4 (11.4%) n (%)
  TRAE: Nausea: 8 (22.9%) n (%)
  TRAE: Nervous system disorders: 2 (5.7%) n (%)
  TRAE: Vomiting: 8 (22.9%) n (%)
  Any treatment-emergent adverse event (TEAE): 3 (8.6) n (%)
